Patent US20090186839A1, “Model for studying the role of genes in chemoresistance” (Cold Spring Harbor Laboratory, priority 2003, published 2009)
Read-outs that look alike come from different tables or passages of the source.

Columns and labels:
[1] = test system: Eμ-myc/ARF−/− control lymphomas; experiment: In vivo chemotherapy of mice bearing control (ARF-null) lymphomas; parameters: species or system mouse; details: CTX 300 mg/kg i.p.
Description: (§3) Tumor cells were transplanted from the Akt-expressing tumors and from control tumors (Eμ-myc, arf^−/−, p53^+/+) into syngeneic, non-transgenic 6-10 week old C57BL/6 mice by tail vein injection [10^6 viable lymphoma cells in phosphate-buffered saline (PBS)] and recipient mice were monitored for tumor formation twice a week by palpation of the pre-scapular and cervical lymph-nodes. […] Following treatments, mice were monitored for immediate response and time to relapse by lymph node palpation and by blood smears (by tail artery bleeding) stained according to a modified Wright's protocol using the LeukoStat kit (Fisher Scientific, Pittsburgh, Pa.). The data were statistically evaluated.
A ‘complete remission’ (CR) was defined as absence of any palpable tumor and the absence of leukemia, as examined by blood smears. ‘Tumor free survival’ was defined as the time between treatment and reappearance of a well-palpable lymphoma (Schmitt, C. A., et al., “Genetic analysis of chemoresistance in primary murine lymphomas,” Nat. Med. 6: 1029-1035 (2000)). ‘Overall survival’ was defined as the time between treatment and progression to a terminal stage at which the animals were sacrificed. Tumor free and overall survival data were analyzed in the Kaplan-Meier format using the log-rank (Mantel-Cox) test for statistical significance. […]

Eμ-myc/Akt lymphomas = experiment: In vivo chemotherapy of mice bearing Akt lymphomas; parameters: species or system mouse
Description: as §3

Eμ-Myc/eIF4E lymphomas = experiment: In vivo chemotherapy of mice bearing eIF4E lymphomas; parameters: species or system mouse; details: for animals that had developed terminal lymphoma / reversal of DXR resistance / sensitization to DXR: Eμ-Myc/eIF4E tumors, silvestrol 0.2 mg/kg daily 5 days i.p.; for animals that had developed terminal lymphoma: by the 40 day time point, DXR once 10 mg/kg
Description: A ‘complete remission’ (CR) was defined as absence of any palpable tumor and the absence of leukemia, as examined by blood smears. ‘Tumor free survival’ was defined as the time between treatment and reappearance of a well-palpable lymphoma (Schmitt, C. A., et al., “Genetic analysis of chemoresistance in primary murine lymphomas,” Nat. Med. 6: 1029-1035 (2000)). ‘Overall survival’ was defined as the time between treatment and progression to a terminal stage at which the animals were sacrificed. Tumor free and overall survival data were analyzed in the Kaplan-Meier format using the log-rank (Mantel-Cox) test for statistical significance. Whole body fluorescence imaging of living animals was performed as described (Schmitt, C. A., et al., “Dissecting p53 tumor suppressor functions in vivo,” Cancer Cell 1: 289-298 (2002) and Yang, M., et al., “Whole-body optical imaging of green fluorescent protein-expressing tumors and metastases.” Proc. Natl. Acad. Sci. USA 97: 1206-1211 (2000)).
Doxorubicin (Sigma) and cyclophosphamide (Sigma) were dissolved in saline. In treatment studies, control lymphomas were ARF-null tumors arising in an Eμ-myc/ARF−/− background (Schmitt, C. A., et al., “INK4a/ARF mutations accelerate lymphomagenesis and promote chemoresistance by disabling p53,” Genes Dev. 13: 2670-2677 (1999)).
Primary tumors arising in Eμ-Myc/eIF4E mice were harvested and a total of 2×10^6 secondary lymphoma cells were injected into the tail veins of 6-8 week old female C57BL/6 (non-transgenic) mice. Upon tumor formation of palpable secondary tumors, mice were treated with i.p. administration of drug. The treatment schedule included an injection with DXR (once at 10 mg/kg), silvestrol (0.2 mg/kg daily for 5 days) or various combinations. DXR and silvestrol were diluted in 5.2% PEG400/5.2% Tween 80 immediately prior to i.p. injection. In combination studies, silvestrol was administered once daily for 5 consecutive days, with DXR administered on day 2. Mice were then palpated regularly and monitored for the disappearance or recurrence of tumors.
Data are presented as Kaplan-Meier plots using the log-rank (Mantel-Cox) test for statistical significance (SigmaStat software) in FIG. 29, showing the tumor free survival/time to relapse, and FIG. 30, showing the overall survival/time. Time to relapse for mice that were never tumor free was scored as ‘0’ days. Tumor free survival was defined as the time between treatment and reappearance of a palpable lymphoma. Overall survival was defined as the time between treatment and progression to a terminal stage at which the animals were sacrificed. […] With either compound alone, approximately 80% of the animals had developed terminal lymphoma by the 40 day time point. With a combination treatment of silvestrol and DXR, less than 30% of the animals had developed terminal lymphoma by the end test point, well over 60 days.

Eμ-myc/PTEN+/− tumors = experiment: In vivo chemotherapy of mice bearing PTEN+/− lymphomas; parameters: species or system mouse; details: for reversal of DXR resistance / sensitization to DXR: RAP 4 mg/kg, silvestrol 0.2 mg/kg daily 5 days i.p.
Experimental: Primary tumors arising in Eμ-myc/PTEN+/− and Ep-myc/PTEN+/− mice were harvested and injected into C57BL/6 (non-transgenic) mice. Upon tumor formation of palpable secondary tumors, mice were treated with a single i.p. administration of drug. The treatment schedule included an injection with either DXR ([…] in 0.9% saline), CTX (300 mg/kg in 0.9% saline), RAP (4 mg/kg in 0.9% H2O with 5% PEG/TWEEN), or a combination thereof (d1: DXR or CTX, d2: DXR or CTX and RAP, d3-5: DXR pr CTX). Mice were then palpated twice weekly for disappearance or recurrence of tumors. Data are presented as Kaplan-Meier plots in FIG. 19, and show the tumor free survival/time to relapse. Time to relapse for mice that were never tumor free was scored as ‘0’ days. […] The bottom panel has an equivalent analysis for treatment with CTX, RAP, and RAP+CTX combination.
Primary tumors arising in PTEN+/−Eμ-Myc mice were harvested and a total of 2×10^6 secondary lymphoma cells were injected into the tail veins of 6-8 week old female C57BL/6 (non-transgenic) mice. Upon tumor formation of palpable secondary tumors, mice were treated with i.p. administration of drug. The treatment schedule included an injection with DXR (once at 10 mg/kg), RAP (4 mg/kg daily for 5 days), or silvestrol (0.2 mg/kg daily for 5 days). RAP, DXR, and silvestrol were diluted in 5.2% PEG400/5.2% Tween 80 immediately prior to i.p. injection.
The ability of rocaglates to work in synergistic combination with other cytotoxic agents has not previously been tested. Silvestrol was therefore tested in combination with DXR, where silvestrol or RAP were administered once daily for 5 consecutive days, with DXR administered on day 2. Mice were then palpated twice weekly for the disappearance or recurrence of tumors.
Data are presented as Kaplan-Meier plots using the log-rank (Mantel-Cox) test for statistical significance (SigmaStat software) in FIG. 28, and show the tumor free survival/time to relapse. Time to relapse for mice that were never tumor free was scored as ‘0’ days. […]

HeLa cells = experiment: [35S]-methionine incorporation into proteins (translation inhibition), 1 h incubation; type: cell-based; details: read-out: IC50, inhibition of [35S]-methionine incorporation into proteins
Experimental: Results are the average of three experiments with standard error of the mean shown.
(§1) The ability of rocaglates to induce apoptosis and inhibit protein synthesis was investigated. […] Jurkat cells were exposed to silvestrol or FA and translation inhibition and apoptosis induction were monitored. Translation initiation was measured as the inhibition of [^35S]-methionine incorporation into proteins in a dose-dependent manner. Apoptosis induction was measured as the percentage of tagged living cells measured by flow cytometry and expressed relative to vehicle treated cells.
For translation inhibition experiments, HeLa cells were incubated for 1 h with 10 μM anisomycin, 5 μM of the peptide FMRFA, 0.4 μM silvestrol, or vehicle (MeOH). Cells were then washed with PBS, and incubated with media lacking compound for the indicated times. Ten minutes before harvesting, [^35S]-methionine was added to the culture. The rate of [^35S]-methionine incorporation into TCA-insoluble material was measured and was expressed relative to vehicle (MeOH) treated cells.

eIF4A = eIF4A (Homo sapiens, UniProt P60842); experiment: Cross-linking experiments, eIF4A binding to mRNA; type: biochemical; details: data not shown
eIF4A, sequence (P60842 whole entry, species assumed): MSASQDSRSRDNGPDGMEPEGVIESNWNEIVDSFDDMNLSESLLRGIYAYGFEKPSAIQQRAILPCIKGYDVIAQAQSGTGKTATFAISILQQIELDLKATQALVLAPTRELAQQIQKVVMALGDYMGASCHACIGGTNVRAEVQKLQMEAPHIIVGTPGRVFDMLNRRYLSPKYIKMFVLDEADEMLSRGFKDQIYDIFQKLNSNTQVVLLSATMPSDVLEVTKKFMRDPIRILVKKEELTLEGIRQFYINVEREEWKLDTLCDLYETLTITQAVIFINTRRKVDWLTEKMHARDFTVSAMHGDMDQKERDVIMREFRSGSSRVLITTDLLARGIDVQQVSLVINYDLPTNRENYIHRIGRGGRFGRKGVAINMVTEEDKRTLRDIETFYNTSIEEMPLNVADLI
Description: Inhibition of translation initiation induces apoptosis (Li et al., 2002, Mol. Cell. Biol. 22, 2853-2861; Polunovsky et al., 2000, J. Biol. Chem. 275, 24776-24780), although the precise mechanism by which this event is triggered is not fully understood. One hypothesis is that changes in the levels or activity of eIF4F mediate the translational regulation of specific genes involved in survival and apoptosis. Gene specific translational control is thought to be mediated by the amount of secondary structure within the 5′ untranslated regions of mRNAs which dictates the eIF4Ac-requirement for ribosome recruitment (Svitkin et al., 2001, RNA 7, 382-394).

Jurkat cells [2] = experiment: [35S]-methionine incorporation rate after 13 h silvestrol; type: cell-based; details: Homo sapiens, 13 h incubation, read-out: IC50, inhibition of protein synthesis
Experimental: (§2) Jurkat cells were incubated with the indicated silvestrol concentrations for 13 h after which time the rate of [^35S]-methionine incorporation or the percentage of living cells was measured. [^35S]-methionine was added 10 minutes before the end of the incubation period and the rate of incorporation is expressed relative to vehicle (MeOH) treated cells. Results are the average of two experiments with the error of the mean shown. The percentage of living cells was determined by flow cytometry following staining of the cells with Annexin V and propidium iodide. The percentage of living cells is expressed relative to vehicle (MeOH) treated and the results are the average of three experiments with the error of the mean shown.
Jurkat cells were incubated with the indicated silvestrol concentrations for 13 h after which time the rate of [^35S]-methionine incorporation or the percentage of living cells was measured. [^35S]-methionine was added 10 min. before the end of the incubation period and the rate of incorporation is measured relative to vehicle (MeOH) treated cells. The percentage of living cells was determined by flow cytometry following staining of the cells with Annexin V and propidium iodide. Silvestrol induced apoptosis in 50% of Jurkat cells following 13 hr exposure (FIG. 27). […]

Jurkat cells [3] = experiment: Apoptosis / living cells by flow cytometry (Annexin V, propidium iodide); type: cell-based; details: 13 hr exposure, concentration not given
Experimental: as §2, with “The percentage of living cells is expressed relative to vehicle (MeOH) treated and the results are the average of three experiments with the error of the mean shown.” left out
as §1
Jurkat cells were incubated with the indicated silvestrol concentrations for 13 h after which time the rate of [^35S]-methionine incorporation or the percentage of living cells was measured. [^35S]-methionine was added 10 min. before the end of the incubation period and the rate of incorporation is measured relative to vehicle (MeOH) treated cells. […]

With O=P1(N(CCCl)CCCl)NCCCO1 (centres unmarked) [CTX, cyclophosphamide] the complete remission [1] was “invariably entered a complete remission”, the “mice remaining tumor free after 100 days” value [1] was greater than 50% and the duration of remissions (Eμ-myc/Akt lymphomas; Akt lymphomas, CTX 300 mg/kg i.p.) was “less than 20 days”. For the same compound, the “mice achieving remissions lasting more than 60 days” value (Eμ-myc/Akt lymphomas; Akt lymphomas, CTX 300 mg/kg, RAP 4 mg/kg x 5 d) was “none”.
For COc1cccc2c1C(=O)c1c(O)c3c(c(O)c1C2=O)C[C@@](O)(C(=O)CO)C[C@@H]3O[C@H]1C[C@H](N)[C@H](O)[C@H](C)O1 [DXR, doxorubicin], the “animals that had developed terminal lymphoma” value (Eμ-Myc/eIF4E lymphomas) was “approximately 80%”, the “tumor response to therapy” value (Eμ-Myc/eIF4E lymphomas; eIF4E lymphomas) was “highly resistant to DXR therapy” and the “tumor free and overall survival relative to control lymphomas” value (Eμ-myc/Akt lymphomas; Akt lymphomas, DXR 10 mg/kg i.p.) was “substantial reductions in tumor free and overall survival”. For the same compound, the “whole body GFP imaging of tumors” value (Eμ-myc/Akt lymphomas; Akt-GFP secondary tumors, day 21 post treatment) was “sizable tumors at several sites” and the “tumor response to therapy” value (Eμ-myc/PTEN+/− tumors; DXR) was “resistant to DXR”.
For COC(=O)[C@H]1[C@@H](OC=O)[C@@]2(O)c3c(OC)cc(OC)cc3O[C@@]2(c2ccc(OC)cc2)[C@@H]1c1ccccc1 [FA, 1-O-formylaglafoline], the IC50 (HeLa cells; 1 h incubation) was roughly 100 nM and the “effect on ability of eIF4A to bind mRNA” value (eIF4A) was “stimulate the ability of eIF4A to bind mRNA”.
COC(=O)[C@H]1[C@@H](O)[C@@]2(O)c3c(OC)cc(O[C@@H]4O[C@@H]([C@H](O)CO)CO[C@H]4OC)cc3O[C@@]2(c2ccc(OC)cc2)[C@@H]1c1ccccc1 [silvestrol] was tested, and the IC50 (Jurkat cells [2]) was 1 nM, the “animals that had developed terminal lymphoma” value (Eμ-Myc/eIF4E lymphomas) was “approximately 80%” and the “reversal of DXR resistance / sensitization to DXR” value (Eμ-Myc/eIF4E lymphomas) was “reversed this drug resistance”. The “reversal of DXR resistance / sensitization to DXR” value (Eμ-Myc/eIF4E lymphomas; listed as Silvestrol) was “sensitizes Eμ-Myc/eIF4E tumors to the effects of DXR”, the IC50 (HeLa cells; Homo sapiens, HeLa, 1 h) was 20 nM and the “cells in which apoptosis was induced” value (Jurkat cells [3]) was 50%. For the same compound, the “effect on ability of eIF4A to bind mRNA” value (eIF4A) was “stimulate the ability of eIF4A to bind mRNA”, the “reversal of DXR resistance / sensitization to DXR” value (Eμ-myc/PTEN+/− tumors) was “reverse this drug resistance” and the “reversal of DXR resistance / sensitization to DXR” value (Eμ-myc/PTEN+/− tumors; listed as Silvestrol) was “sensitizes PTEN^+/−Eμ-Myc tumors to the effects of doxorubicin”.
